The source of these data is patent US7541173B2, “Solvent tolerant microorganisms and methods of isolation” (E.I. du Pont de Nemours and Company, priority 2006, dated 2009).

Assay [1] has as its system microbial consortium from wastewater sludge samples. The following applies: 1-butanol 1.6%, chemostat, 37° C.
In assay [2] the test system is butanol tolerant Lactobacillus strains. Format: cell-based. The following applies: S20 agar or TSA agar, 37° C., 24 to 72 h. The protocol: The square-well microtiter plate was sealed with an adhesive cover (Beckman Coulter Inc.; Catalog No. 538619) and incubated at 37° C. with shaking for up to 72 h. The square-well microtiter plate was used to make a master plate by dispensing 200 μL of culture from each square well into a corresponding well in a “U-bottom” microtiter plate (VWR Scientific Products, West Chester, Pa.; Catalog No. 62409-052).

Assay [3] relates to most microorganisms described in the art. The following applies: liquid medium at 37° C.; cited from earlier work.

As to 1-butanol, the “cell density after continued incubation” value in assay [1] (after adaptation) amounted to 2.3 OD600. Also, the “cell density after increasing 1-butanol in feed” value in assay [1] (initial decrease) is given as “less than 1.5 OD600”. In assay [2], the “1-butanol concentration in agar medium on which isolates grew” value came out at 3%. For the same substance, the “concentration at which growth is totally inhibited” value in assay [3] is listed as “less than 2.0 % w/v”.
